Source: ChEMBL document CHEMBL5532652, “Design and synthesis of pterostilbene derivatives bearing triazole moiety that might treat DSS-induced colitis in mice through modulation of NF-κB/MAPK signaling pathways” (Eur J Med Chem, 2024)

Experiments:
[1] = system: RAW264.7; assay: Anti-inflammatory activity in mouse RAW264.7 cells assessed as inhibition of LPS-induced NO production at 10 uM incubated pretreated with compound for 1 hr followed by LPS-induction and measured after 24 hrs by Griess reagent based assay relative to control; type: functional; conditions: time 25 hrs
[2] = system: RAW264.7; assay: Anti-inflammatory activity in mouse RAW264.7 cells assessed as inhibition of LPS-induced NO production incubated pretreated with compound for 1 hr followed by LPS-induction and measured after 24 hrs by Griess reagent based assay; type: functional, cell-based
[3] = Cytotoxicity against mouse RAW264.7 cells assessed as reduction in cell viability at 20 uM incubated for 24 hrs in presence of LPS by MTT assay; type: toxicity, cell-based
[4] = Cytotoxicity against mouse RAW264.7 cells assessed as reduction in cell viability at 20 uM incubated for 24 hrs in absence of LPS by MTT assay; type: toxicity, cell-based
[5] = system: RAW264.7; assay: Cytotoxicity against mouse RAW264.7 cells assessed as reduction in cell viability at 20 uM incubated for 24 hrs by MTT assay; type: toxicity, cell-based; conditions: raw264.7, 24 h
[6] = Toxicity in C57BL/6 mouse assessed as body weight loss at 200 mg/kg, po measured for 7 days; type: organism-based; conditions: in vivo, 168 h, time 7 day

Compound	inhibition at 10 µM [1]	IC50 [2]	IC50 at 24 h [3]	IC50 at 24 h [4]	Activity [5]	Activity [6]
C=CCCCOc1ccc(/C=C/c2cc(OC)cc(OC)c2-c2cnnn2C(=O)NCCCl)cc1	85.9%	2 µM	> 50 µM	> 50 µM	–	–
C=C(C)COc1ccc(/C=C/c2cc(OC)cc(OC)c2-c2cnnn2C(=O)NCCCC)cc1	54.6%	12.8 µM	> 50 µM	> 50 µM	–	–
C=C(C)COc1ccc(/C=C/c2cc(OC)cc(OC)c2-c2cnnn2C(=O)NCCc2ccccc2)cc1	42.6%	14.9 µM	> 50 µM	> 50 µM	–	–
C=CCOc1ccc(/C=C/c2cc(OC)cc(OC)c2-c2cnnn2C(=O)NCCC)cc1	81.1%	2.6 µM	> 50 µM	> 50 µM	–	–
C=CCCOc1ccc(/C=C/c2cc(OC)cc(OC)c2-c2cnnn2C(=O)NCC)cc1	46.3%	13.4 µM	> 50 µM	> 50 µM	–	–
C=C(C)COc1ccc(/C=C/c2cc(OC)cc(OC)c2-c2cnnn2C(=O)NC(C)C)cc1	48.2%	16 µM	> 50 µM	> 50 µM	–	–
COc1cc(/C=C/c2ccc(OCc3cc(F)cc(F)c3)cc2)c(-c2cnn[nH]2)c(OC)c1	–	–	–	–	Non-Toxic	–
COc1cc(/C=C/c2ccc(OCc3ccc(Br)cc3)cc2)c(-c2cnn[nH]2)c(OC)c1	–	–	–	–	Non-Toxic	–
CCCCOc1ccc(/C=C/c2cc(OC)cc(OC)c2-c2cnn[nH]2)cc1	–	–	–	–	Non-Toxic	–
C=CCCOc1ccc(/C=C/c2cc(OC)cc(OC)c2-c2cnn[nH]2)cc1	46.9%	14.4 µM	> 50 µM	> 50 µM	Non-Toxic	–
COc1cc(/C=C/c2ccc(OC(=O)N(C)C)cc2)c(-c2cnn[nH]2)c(OC)c1	–	–	–	–	Non-Toxic	–
C=CCOc1ccc(/C=C/c2cc(OC)cc(OC)c2-c2cnnn2C(=O)NCCc2ccccc2)cc1	45.3%	14 µM	> 50 µM	> 50 µM	–	–
C=CCOc1ccc(/C=C/c2cc(OC)cc(OC)c2-c2cnnn2C(=O)NC(C)C)cc1	75%	8 µM	> 50 µM	> 50 µM	–	–
C=C(C)COc1ccc(/C=C/c2cc(OC)cc(OC)c2-c2cnnn2C(=O)NCCC)cc1	77.5%	6.2 µM	> 50 µM	> 50 µM	–	–
COc1cc(/C=C/c2ccc(OCc3ccc(OC(F)(F)F)cc3)cc2)c(-c2cnn[nH]2)c(OC)c1	–	–	–	–	Non-Toxic	–
C=C(C)COc1ccc(/C=C/c2cc(OC)cc(OC)c2-c2cnn[nH]2)cc1	74.2%	7.15 µM	> 50 µM	> 50 µM	Non-Toxic	–
C=CCCCOc1ccc(/C=C/c2cc(OC)cc(OC)c2-c2cnnn2C(=O)NCCCC)cc1	60%	8.66 µM	> 50 µM	> 50 µM	–	–
C=CCCOc1ccc(/C=C/c2cc(OC)cc(OC)c2-c2cnnn2C(=O)NCCCl)cc1	96.9%	1.4 µM	> 50 µM	> 50 µM	–	–
C=CCCCOc1ccc(/C=C/c2cc(OC)cc(OC)c2-c2cnnn2C(=O)NC(C)C)cc1	53.4%	9.83 µM	> 50 µM	> 50 µM	–	–
COc1cc(/C=C/c2ccc(OCC3CCCC3)cc2)c(-c2cnn[nH]2)c(OC)c1	–	–	–	–	Non-Toxic	–
CCOC(=O)COc1ccc(/C=C/c2cc(OC)cc(OC)c2-c2cnn[nH]2)cc1	–	–	–	–	Non-Toxic	–

Compound	inhibition at 10 µM [1]	IC50 [2]	IC50 at 24 h [3]	IC50 at 24 h [4]	Activity [5]	Activity [6]
COc1ccc(/C=C/c2cc(OC)cc(OC)c2-c2cnn[nH]2)cc1	–	–	–	–	Non-Toxic	–
C=C(C)COc1ccc(/C=C/c2cc(OC)cc(OC)c2-c2cnnn2C(=O)NCC)cc1	43.6%	15.2 µM	> 50 µM	> 50 µM	–	–
CCOc1ccc(/C=C/c2cc(OC)cc(OC)c2-c2cnn[nH]2)cc1	–	–	–	–	Non-Toxic	–
C=CCCOc1ccc(/C=C/c2cc(OC)cc(OC)c2-c2cnnn2C(=O)NCCc2ccccc2)cc1	64.6%	9.46 µM	> 50 µM	> 50 µM	–	–
CCOCCOc1ccc(/C=C/c2cc(OC)cc(OC)c2-c2cnn[nH]2)cc1	–	–	–	–	Non-Toxic	–
COCCCCOc1ccc(/C=C/c2cc(OC)cc(OC)c2-c2cnn[nH]2)cc1	–	–	–	–	Non-Toxic	–
COc1cc(/C=C/c2ccc(OCC3CC3)cc2)c(-c2cnn[nH]2)c(OC)c1	–	–	–	–	Non-Toxic	–
O=C(O)c1cc(/N=N/c2ccc(S(=O)(=O)Nc3ccccn3)cc2)ccc1O [SULFASALAZINE]	–	–	–	–	–	Non-Toxic
C=CCCCOc1ccc(/C=C/c2cc(OC)cc(OC)c2-c2cnn[nH]2)cc1	62.2%	6.18 µM	> 50 µM	> 50 µM	Non-Toxic	–
C=CCOc1ccc(/C=C/c2cc(OC)cc(OC)c2-c2cnnn2C(=O)NCCCC)cc1	50%	11.7 µM	> 50 µM	> 50 µM	–	–
C=CCCCOc1ccc(/C=C/c2cc(OC)cc(OC)c2-c2cnnn2C(=O)NCCC)cc1	55.5%	6.2 µM	> 50 µM	> 50 µM	–	–
C=CCCOc1ccc(/C=C/c2cc(OC)cc(OC)c2-c2cnnn2C(=O)NC(C)C)cc1	61.3%	7.91 µM	> 50 µM	> 50 µM	–	–
C=CCCCOc1ccc(/C=C/c2cc(OC)cc(OC)c2-c2cnnn2C(=O)NCCc2ccccc2)cc1	67.8%	6.5 µM	> 50 µM	> 50 µM	–	–
C=CCCOc1ccc(/C=C/c2cc(OC)cc(OC)c2-c2cnnn2C(=O)NCCCC)cc1	50.6%	10.4 µM	> 50 µM	> 50 µM	–	–
COc1cc(/C=C/c2ccc(OCCc3ccccc3)cc2)c(-c2cnn[nH]2)c(OC)c1	–	–	–	–	Non-Toxic	–
C=CCCCOc1ccc(/C=C/c2cc(OC)cc(OC)c2-c2cnnn2C(=O)NCC)cc1	49.6%	12.3 µM	> 50 µM	> 50 µM	–	–
COc1cc(/C=C/c2ccc(OCc3ccc(C)cc3)cc2)c(-c2cnn[nH]2)c(OC)c1	–	–	–	–	Non-Toxic	–
C=CCCOc1ccc(/C=C/c2cc(OC)cc(OC)c2-c2cnnn2C(=O)NCCC)cc1	72.7%	3.15 µM	> 50 µM	> 50 µM	–	–
C=CCOc1ccc(/C=C/c2cc(OC)cc(OC)c2-c2cnn[nH]2)cc1	53.7%	10.8 µM	> 50 µM	> 50 µM	Non-Toxic	–
C=CCOc1ccc(/C=C/c2cc(OC)cc(OC)c2-c2cnnn2C(=O)NCC)cc1	67.3%	8.16 µM	> 50 µM	> 50 µM	–	–
